Assay results as given in patent publication US20090156646A1, “PYRIDYLPHENOL COMPOUND AND USE THEREOF” (TAKEDA PHARMACEUTICAL COMPANY LIMITED, priority 2005, published 2009).
Counter-ions that a name gives are not always drawn.

Experiments:
[1] = target: T1, human metastin receptor hOT7T175 (Homo sapiens, UniProt Q969F8, L364H); experiment: FLIPR assay of metastin-induced change in intracellular calcium in h175-16 cells (antagonist activity); format: cell-based; details: human metastin (40-54) as ligand, Fluo-3 fluorescence
T1 construct: encoding the entire length of human metastin receptor hOT7T175; expressed in transfected cells; host or cells: CHO/dhFr- cells (ATCC #CRL-9096) stably transfected with pAKKO-hOT7T175; clone h175-16 was used as whole cells for FLIPR
T1 sequence (Q969F8 whole entry L364H): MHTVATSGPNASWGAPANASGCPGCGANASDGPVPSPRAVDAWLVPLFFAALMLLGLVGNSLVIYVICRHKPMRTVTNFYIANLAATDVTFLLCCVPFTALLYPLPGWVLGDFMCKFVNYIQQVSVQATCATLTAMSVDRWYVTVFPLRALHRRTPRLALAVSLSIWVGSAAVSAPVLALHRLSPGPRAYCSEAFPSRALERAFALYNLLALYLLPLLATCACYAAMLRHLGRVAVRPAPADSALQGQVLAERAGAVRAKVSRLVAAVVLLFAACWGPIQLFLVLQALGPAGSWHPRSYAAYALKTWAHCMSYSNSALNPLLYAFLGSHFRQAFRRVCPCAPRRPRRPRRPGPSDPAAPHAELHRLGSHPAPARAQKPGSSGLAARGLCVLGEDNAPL
Experimental: cDNA fragments (SEQ ID NO: 2) encoding the entire length of human metastin receptor hOT7T175 were incorporated into expression vector pAKKO1.11H to produce animal cell expression plasmids pAKKO-hOT7T175. CHO/dhFr-cells (ATCC, #CRL-9096) were seeded onto 6 cm culture dishes (Becton Dickinson) at a density of 0.3×10^6 cells/dish, and cultured in the conditions of 48 hours, 37° C. and 5% CO2. 5 μg pAKKO-hOT7T175 plasmid DNA was transfected to the resultant cells by a known method (described in Example 3 of WO 00/24890) using the Cellphect Transfection Kit (Amersham, #27-9268-01). The DNA-transfected cells were cultured in the Dulbecco's modified Eagle medium (DMEM) (Sigma, #D6046) containing 10% dialyzed FBS (Biowest, #S180D), 1× Non-Essential Amino Acid (Invitrogen, #11140-050) and 50 μg/ml Gentamycin (Invitrogen, #15750-060; and cell strains stably expressing the plasmid genes were selected. The obtained 41 clones were treated with the FLIPR assay (in accordance with the method described in Example 3 of WO 00/24890), and the reactivity to the human metastin […] (Nos. 40 to 54 of the human metastin sequence; Peptide Institute, Inc., #4389-v) was evaluated. In the end, h175 KB34 cell strains were selected. By substantially the same method, h175-16 cell strains were also produced.
The h175-16 cell strains prepared in Test Example 1 were seeded onto a 96-well plate (Corning, #3904) at 3×10^4 cell/well, and cultured for 24 hours on a CO2 incubator (cell seeding plate).
A calcium kit buffer containing 0.1% BSA [20 mM HEPES, 115 mM NaCl, 5.4 mM KCl, 0.8 mM MgCl2, 1.8 mM CaCl2, 13.8 mM D-glucose, pH 7.4, with an attached calcium kit produced by Dojin] was prepared and kept warm at 37° C. Then, the medium in the wells of the cell seeding plate was removed, and […] of the calcium kit buffer was added to each well. 50 μl 250 mM Probenecid (with an attached calcium kit produced by Dojin), 80 μl 5% Pluronic F-127 (with an attached calcium kit produced by Dojin) and 25 μl Fluo-3 AM (powder with an attached calcium kit produced by Dojin was dissolved in DMSO at 1 mg/ml) were added to the calcium kit buffer containing 5 ml 0.1% BSA (an amount for measuring one plate) to prepare a loading solution. 50 μl of the loading solution was added to each well to allow a reaction at 37° C. for 1 hour. Thus, Fluo-3 AM was loaded onto the cells. Then, the solution in each well was removed, and 100 μl of the calcium kit buffer containing 1.25 mM Probenecid and 0.1% BSA was added to each well.
50 μl of a test compound diluted with the calcium kit buffer containing 0.1% BSA was added to each well, and stirred by a plate shaker. A cell plate, and a ligand plate provided with human metastin (40-54) (AnyGen) diluted to 400 μM with the calcium kit buffer containing 0.1% BSA, were set to the Fluorometric Imaging Plate Reader (FLIPR, Molecular Devices), and […] was added to each well using an automatic divider in the FLIPR. A change in the calcium concentration in the cells, which corresponded to the ligand response, was measured by a CCD camera in the FLIPR as a change in the amount of fluorescence of Fluo-3. The obtained change in the amount of fluorescence was plotted against the concentration of the test compound, and the compound concentration at which 50% of the change in the amount of fluorescence (i.e., IC50 value) was inhibited was calculated.

[2] = target: T1, human metastin receptor hOT7T175; experiment: binding inhibiting activity: 125I-metastin (40-54) binding to cell membrane fraction of h175 KB34 cells; details: room temperature 60 minutes, read-out: binding inhibiting activity, represented by the IC50 value
Method in brief: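 Membranes came from CHO/dhfr− cells stably expressing human hOT7T175 (clone h175 KB34) and were diluted 250-fold for use. Binding of 125I-metastin (40-54) was run in 20 mM Tris, 2.5 mM magnesium acetate and 2 mM EGTA, pH 7.4, with protease inhibitors, either without BSA or with 1 mg/ml BSA.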

blood LH level = experiment: Suppression of the blood LH level of castrated rats; format: in vivo, rat; details: male castrated Wistar rats
Experimental: The compound of Example 303 was intravenously administered to male castrated rats, and the blood LH level was measured. Male Wistar rats (Japan SLC, Inc.), which were castrated 7 days before the experiment and were 11 weeks old at the time of the experiment, were used. […] To the control animals (n=8), only 20% DMSO-[…]% PEG400 used as a dispersion medium was intravenously administered in an amount of 0.8 ml/kg every 10 minutes, 5 times in succession. […] The LH concentration in the plasma was measured by radioimmunoassay. […] The start time of the administration was set to 0 (represented with the arrow).

IC50 [1] [µM]	melting point [°C]	IC50 [2] [µM]	Compound	blood LH concentration, % of that of the control group (blood LH level; intravenous 0.22 mg/kg every 10 minutes 5 times, 60 minutes after the start of administration, P<0.01) [%]	effect on blood LH concentration (in words) (blood LH level; intravenously administered)
≤ 10	203 to 210	≤ 10	Cl.N#Cc1c(-c2cccc(C(=O)NCCN)c2)cc(-c2ccccc2O)nc1NC(=O)c1cccs1 [Example 3, N-[4-(3-{[(2-aminoethyl)amino]carbonyl}phenyl)-3-cyano-6-(2-hydroxyphenyl)pyridin-2-yl]thiophene-2-carboxamide hydrochloride]	–	–
≤ 10	–	≤ 10	N#Cc1c(-c2cccc(NC(=O)CN)c2)cc(-c2ccccc2O)nc1NC(=O)c1cccs1 [Example 12, N-[3-cyano-4-[3-(glycylamino)phenyl]-6-(2-hydroxyphenyl)pyridin-2-yl]thiophene-2-carboxamide dihydrochloride]	–	–
≤ 10	223 to 228	≤ 10	Cl.N#Cc1c(-c2cccc(NC(=O)CCN)c2)cc(-c2ccccc2O)nc1NC(=O)c1cccs1 [Example 14, N-{4-[3-(β-alanylamino)phenyl]-3-cyano-6-(2-hydroxyphenyl)pyridin-2-yl}thiophene-2-carboxamide hydrochloride]	–	–
≤ 10	–	≤ 10	N#Cc1c(-c2cccc(NC(=O)CCCN)c2)cc(-c2ccccc2O)nc1NC(=O)c1cccs1 [Example 23, N-[4-{3-[(4-aminobutanoyl)amino]phenyl}-3-cyano-6-(2-hydroxyphenyl)pyridin-2-yl]thiophene-2-carboxamide dihydrochloride]	–	–
≤ 10	–	≤ 10	NCCC(=O)Nc1cccc(-c2cc(NC(=O)c3cccs3)nc(-c3ccccc3O)c2)c1 [Example 27, N-{4-[3-(β-alanylamino)phenyl]-6-(2-hydroxyphenyl)pyridin-2-yl}thiophene-2-carboxamide dihydrochloride]	–	–
–	–	≤ 10	Cl.N#Cc1c(-c2cccc(N3CCNCC3)c2)cc(-c2ccc(F)cc2O)nc1NC(=O)c1ccco1 [Example 303, N-[3-cyano-6-(4-fluoro-2-hydroxyphenyl)-4-(3-piperazin-1-ylphenyl)pyridin-2-yl]-2-furamide hydrochloride]	68	significantly decreasing the blood LH concentration
–	182 to 187	≤ 10	CCN1CCC[C@H]1CC(=O)Nc1cccc(-c2cc(-c3ccc(F)cc3O)nc(NC(=O)c3ccco3)c2C#N)c1.Cl [Example 336, N-[3-cyano-4-[3-({[(2S)-1-ethylpyrrolidin-2-yl]acetyl}amino)phenyl]-6-(4-fluoro-2-hydroxyphenyl)pyridin-2-yl]-2-furamide hydrochloride]	–	–
–	213 to 215	≤ 10	CC(N)CC(=O)Nc1cccc(-c2cc(-c3ccc(F)cc3O)nc(NC(=O)c3ccco3)c2C#N)c1.Cl (centres unmarked) [Example 337, N-[4-{3-[(3-aminobutanoyl)amino]phenyl}-3-cyano-6-(4-fluoro-2-hydroxyphenyl)pyridin-2-yl]-2-furamide hydrochloride]	–	–
–	233 to 234	≤ 10	CC(CC(=O)Nc1cccc(-c2cc(-c3ccc(F)cc3O)nc(NC(=O)c3ccco3)c2C#N)c1)N(C)C.Cl (centres unmarked) [Example 338, N-[3-cyano-4-(3-{[3-(dimethylamino)butanoyl]amino}phenyl)-6-(4-fluoro-2-hydroxyphenyl)pyridin-2-yl]-2-furamide hydrochloride]	–	–
–	193 to 195	≤ 10	CCN(CC)C(C)CC(=O)Nc1cccc(-c2cc(-c3ccc(F)cc3O)nc(NC(=O)c3ccco3)c2C#N)c1.Cl (centres unmarked) [Example 339, N-[3-cyano-4-(3-{[3-(diethylamino)butanoyl]amino}phenyl)-6-(4-fluoro-2-hydroxyphenyl)pyridin-2-yl]-2-furamide hydrochloride]	–	–
